ChEMBL document CHEMBL1146233, “Modification of the ceramide moiety of isoglobotrihexosylceramide on its agonist activity in stimulation of invariant natural killer T cells” (J Med Chem, 2007)
The source made the active and inactive calls. The rule behind the calls is not given here.

Key:
iNKT [1] = test: Stimulation of hCD1d-restricted human iNKT cells assessed as IL4 release at 10 ng/mL by ELISA; format: functional, cell-based
[2] = Binding affinity to T cell receptor; format: cell-based, Homo sapiens
iNKT [3] = test: Stimulation of hCD1d-restricted human iNKT cells assessed as IFN-gamma release at 10 ng/mL by ELISA; format: functional, cell-based

Structure (SMILES): CCCCCCCCCCCCCCCCCCCCCCCCCC(=O)N[C@@H](CO[C@H]1O[C@H](CO)[C@H](O)[C@H](O)[C@H]1O)[C@H](O)[C@H](O)CCCCCCCCCCCCCC [RGI-7000]
- Activity (iNKT [1]): Active
- Kd [2]: 0.35 µM
- Activity (iNKT [3]): Active
